From ChEMBL document CHEMBL1201862, “PubChem BioAssay data set” (2004)
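96-well plates; 48 h exposure; 5 concentrations. Endpoints by linear interpolation between flanking doses. Not reached: highest tested concentration assigned. GI50 marks 50% less growth.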 Activity calls are given as the source filed them. Cut-off read from the data, not from the text of the source: active = GI50 up to about 1.1 µM and inactive = higher.

Tests used:
Test in all cases: NCI tumour cell line growth inhibition, 48 h
SR = test system: SR
786-0 = test system: 786-0
PC-3 = test system: PC-3
DLD-1 = test system: DLD-1
HOP-18 = test system: HOP-18
DMS-273 = test system: DMS-273
LXFL 529 = test system: LXFL 529
SNB-78 = test system: SNB-78
RXF 631 = test system: RXF 631

Measured: GI50

Nc1n[c-](N)[n+](=O)c(N)c1NCO
inactive: SR > 100 µM | 786-0 > 100 µM | PC-3 > 100 µM

COc1cc(O)cc2oc(-c3ccc(O)cc3)cc(=O)c12
inactive: SR 37.8 µM | 786-0 68.4 µM | PC-3 > 100 µM

c1ccc(CSC2(SCc3ccccc3)CCCC2)cc1
inactive: SR > 10 µM | PC-3 > 10 µM

CC1(C)OP23(NC(=O)OC2(C(F)(F)F)c2ccccc2O3)OC1(C)C (configuration not stated)
inactive: DLD-1 > 100 µM | HOP-18 > 100 µM | DMS-273 > 100 µM | LXFL 529 > 100 µM | SNB-78 > 100 µM

C[Si](C)(C)/C=C/CN1C(=O)CCC1=O
inactive: DLD-1 > 100 µM | SR > 100 µM | HOP-18 40.1 µM | DMS-273 > 100 µM | LXFL 529 > 100 µM | SNB-78 > 100 µM

COc1nc(SC)nc2c1cnn2C1OC(C(O)CO)C(OC)C1O (configuration not stated)
inactive: DLD-1 > 100 µM | HOP-18 > 100 µM | DMS-273 > 100 µM | SNB-78 > 85.9 µM

COc1cc(C2C(C(=O)O)=C(CO)Oc3cc4c(cc32)OCO4)cc(OC)c1O (configuration not stated)
inactive: DLD-1 > 100 µM | HOP-18 > 100 µM | DMS-273 > 100 µM | SNB-78 > 100 µM

CC1(C)CC(=O)C2=C(C1)OC1=C(CC(C)(C)CC1=O)C2c1ccccc1[N+](=O)[O-] (configuration not stated)
inactive: SR > 100 µM | 786-0 > 100 µM | PC-3 > 100 µM

c1ccc(C(NC2=NCCO2)c2ccccc2)cc1
inactive: SR > 10 µM | PC-3 > 10 µM

O=C(O)Cc1cc(F)ccc1C(=O)O
inactive: SR 77.1 µM | 786-0 > 100 µM | PC-3 > 100 µM

O=c1[nH]c(=O)n(C2CC(O)C(CO)O2)cc1C(OCC(F)(F)F)OCC(F)(F)F (configuration not stated)
inactive: DLD-1 > 100 µM | 786-0 > 100 µM | RXF 631 > 100 µM | DMS-273 > 100 µM | LXFL 529 > 100 µM | SNB-78 > 100 µM

O=C(c1ccccc1Br)C(F)(F)F
inactive: SR > 100 µM | 786-0 > 100 µM | PC-3 > 100 µM

Cc1nc2ccccc2n1C(=O)c1c(F)c(F)c(F)c(F)c1F
inactive: SR 2.34 µM | PC-3 17.5 µM

CN(C)C(=S)/N=c1\ssc(=S)n1C
inactive: DLD-1 > 100 µM | SR > 100 µM | HOP-18 > 100 µM | 786-0 > 100 µM | RXF 631 > 100 µM | DMS-273 > 100 µM | LXFL 529 > 100 µM | SNB-78 > 100 µM

CC(=O)OC(OC(C)=O)n1cc(C=O)c2ccccc21
inactive: SR > 100 µM | PC-3 > 100 µM

c1ccc(NN/N=N/c2ccc(-c3nc4ccccc4[nH]3)cc2)cc1
inactive: SR 31.8 µM | 786-0 28.2 µM | PC-3 26.8 µM

N#Cc1c(=O)c2cccnc2n2c1[nH]c1ccccc12
inactive: SR > 100 µM | 786-0 32.1 µM | PC-3 > 100 µM

C[N+](C)([O-])CCOc1cc2c(c3ccccc13)-c1ccccc1C2=O
inactive: DLD-1 17 µM | HOP-18 29.1 µM | DMS-273 16.3 µM | SNB-78 19.8 µM

Cc1cc(C)n(C(=C(C(Cl)=C(Cl)Cl)[N+](=O)[O-])n2nc(C)cc2C)n1
inactive: PC-3 4.43 µM

CN(/N=C1\C(=O)Nc2ccccc21)c1ccccc1
inactive: SR 94 µM | PC-3 45.4 µM

CN(C)CCNC(=O)c1cccc2ccc(-c3ccc(F)cc3)nc12
inactive: DLD-1 3.64 µM | HOP-18 17.4 µM | DMS-273 2.82 µM | SNB-78 8.85 µM

Cc1cnc(/N=c2\sc(C)cn2-c2ncc(C)s2)s1
inactive: SR > 100 µM | 786-0 > 100 µM | PC-3 > 100 µM

COc1ccc2nc3cc(Cl)ccc3c(Sc3ccc(N)cc3)c2c1
inactive: DLD-1 4.47 µM | SR 2.62 µM | HOP-18 12.2 µM | 786-0 6.95 µM | RXF 631 11 µM | DMS-273 10.6 µM | LXFL 529 4.32 µM | SNB-78 12.5 µM

N#C/N=N/c1cc(Cl)c(/N=N/C#N)cc1Cl
inactive: DLD-1 > 100 µM | SR 34.8 µM | DMS-273 > 100 µM | LXFL 529 28.3 µM | SNB-78 > 100 µM

CC(=O)C1CC[C@@H]2[C@H](CC[C@]3(C)[C@@H](O)CC[C@@H]23)[C@H]1C(=O)O (some centres not stated)
inactive: SR > 100 µM | PC-3 > 100 µM

O=[N+]([O-])c1ccc2[nH]c3c(-c4ccccc4)nccc3c2c1
inactive: DLD-1 3.73 µM | HOP-18 18 µM | DMS-273 11.9 µM | SNB-78 31 µM

CCCNC(=S)N/C=C1/C(=O)Oc2ccccc2C1=O
inactive: SR > 100 µM | 786-0 > 100 µM | PC-3 > 100 µM

CC(=O)OCC1OC(n2c3c(c(-c4ccco4)c(C#N)c2=S)CCC3)C(OC(C)=O)C(OC(C)=O)C1OC(C)=O (configuration not stated)
inactive: SR 31.6 µM | 786-0 49.7 µM | PC-3 49.7 µM

O=C(O)C12CCCCC1CCCC2 (configuration not stated)
inactive: DLD-1 > 100 µM | HOP-18 > 100 µM | DMS-273 > 100 µM | LXFL 529 > 100 µM

COc1c(Br)cc(CC(N)=O)c(O)c1Br
inactive: DLD-1 > 100 µM | SR > 100 µM | HOP-18 > 100 µM | RXF 631 > 100 µM | DMS-273 > 100 µM | SNB-78 > 100 µM

C[C@]12CC[C@H]3[C@@H](CCC4=CC(=O)CC[C@@]43C)[C@@H]1CC[C@@H]2C(=O)COS(=O)(=O)c1ccc(Br)cc1
inactive: SR 1.4 µM | PC-3 8.85 µM

COc1ccc(/C(C#N)=C/c2ccc(OC)c(OC)c2)cc1
inactive: 786-0 > 100 µM | PC-3 > 100 µM

CC(=O)Oc1ccccc1C(=O)Nc1ncc([N+](=O)[O-])s1 [NITAZOXANIDE]
inactive: 786-0 26.7 µM | PC-3 9.53 µM
